Experimental data from US10533034B2, “Human iNKT cell activation using glycolipids” (ACADEMIA SINICA, priority 2014, dated 2020).

Tests used:
B6 wild type mice = details: previously reported; cited from earlier work
[1] = test system: human naïve Vα24+ iNKT cells; assay: Expansion of human iNKT cells; type: cell-based; details: 100 ng/ml; counted on day 9
Protocol: Human naïve Vα24^+ iNKT cells were cultured with autologous immature CD14^+ DCs pulsed with the indicated glycolipid at 100 ng/ml or DMSO on day 2 for 18 h. On day 3, the suspension cells were transferred to a new dish, cultured in the presence of 50 U/ml IL-2 (R & D Systems), and replenished with fresh medium every 3 days. The percentage of Vα24^+/Vβ11^+ cells was determined by flow cytometry on day 9. The total cell number after expansion was calculated with the Guava ViaCount reagent (Millipore, USA) and detected by the Guava system with CytoSoft™ software containing the ViaCount module (Millipore, USA).
As described above, glycolipid analogs with αGal were stronger immune modulators than those with αGlc in mice, especially for the comparison between 7DW8-5 and 7DW8-5-Glc. To investigate if similar trends also applied to human iNKT cells, Vα24^+ iNKT cells isolated from the peripheral blood were incubated with immature DCs pulsed with the indicated glycolipid at 100 ng/ml on day 2. After antigen removal on day 3, human iNKT cells were cultured in the presence of IL-2. The number of expanded iNKT cells was counted using the Guava ViaCount reagent on day 9.

[2] = test system: C1-expanded Vα24+ iNKT cells; assay: mCD1d vs. hCD1d swapping assay, human iNKT cells; type: cell-based; details: presented by mCD1d or hCD1d; 1, 0.1, 0.01 μg/ml
Protocol: (§1) (4A) Murine DN3A4-1.2 Vα14+ iNKT hybridoma cells or (4B) C1-expanded Vα24^+ iNKT cells were pulsed with the indicated glycolipid presented by either mCD1d (A20-CD1d cells) or hCD1d (HeLa-CD1d cells) at 1, 0.1, and 0.01 μg/ml. After 18 hr, the supernatants were harvested to measure IL-2 secretion by an ELISA assay (4A) or using Beadlyte® Human Cytokine kit and Luminex® 200™ reading system (4B). Assays were performed in triplicates. 8-5 was the abbreviation of 7DW8-5.
C1-expanded Vα24^+ iNKT cells were pulsed with the indicated glycolipid antigen presented by either mCD1d (A20-CD1d cells) or hCD1d (HeLa-CD1d cells) at 1, 0.1, and 0.01 μg/ml. After 18 hr, the supernatants were harvested for the measurement of IFN-γ (12A) and IL-4 (12B) secretions. (12C) The ratio of IFN-γ over IL-4 was calculated at different concentrations of glycolipids. […]
Murine DN3A4-1.2 Vα14 iNKT hybridoma cells or C1-expanded Vα24^+ iNKT cells were pulsed with the indicated glycolipid antigen presented either by mCD1d (A20-CD1d cells) or hCD1d (HeLa-CD1d cells) at 1, 0.1, and 0.01 μg/ml. […] IL-2 released from Vα14^+ iNKT cells was determined by ELISA assay. IFN-γ, IL-4 and IL-2 secreted from Vα24^+ iNKT cells were detected using Beadlyte® Human Cytokine kit (Millipore, N.Y., USA) and Luminex® 200™ reading system. […]

[3] = test system: Murine DN3A4-1.2 Vα14 iNKT hybridoma cells; assay: mCD1d vs. hCD1d swapping assay, murine iNKT cells; type: cell-based, mouse; details: presented by mCD1d or hCD1d; 1, 0.1, 0.01 μg/ml
Protocol: as §1
Murine DN3A4-1.2 Vα14 iNKT hybridoma cells or C1-expanded Vα24^+ iNKT cells were pulsed with the indicated glycolipid antigen presented either by mCD1d (A20-CD1d cells) or hCD1d (HeLa-CD1d cells) at 1, 0.1, and 0.01 μg/ml. After 18 hr, the supernatants were harvested for the measurement of cytokine secretion(s). IL-2 released from Vα14^+ iNKT cells was determined by ELISA assay. IFN-γ, IL-4 and IL-2 secreted from Vα24^+ iNKT cells were detected using Beadlyte® Human Cytokine kit (Millipore, N.Y., USA) and Luminex® 200™ reading system.
To explain the species-specific responses, we examined the effects of swapping human vs. mouse CD1d molecules against human vs. murine iNKT cells on the stimulatory activities of GSLs with different glycosyl groups. […]

B6 WT mice splenocytes = assay: FACS analyses of WT mouse immune cells after glycolipid stimulation; type: in vivo; details: 1 μg/mouse; 3 days
Protocol: B6 WT mice treated with the indicated glycolipid (1 μg/mouse) or vehicle (1% DMSO in PBS) were sacrificed at 72 hr post-injection and their splenocytes were subjected to FACS analysis. (8A) The total splenocytes, (8B) total CD11Chi cells, (8C) CD11Chi/CD80+ cells, (8D) CD11Chi/CD86+ cells, (8E) CD4^+ T cells and (8F) CD8^+ T cells.
B6 WT or Jα18 KO mice treated with specific glycolipid (1 μg/mouse) or vehicle (1% DMSO in PBS) were sacrificed at 72 hr post-injection and their spleens were harvested. After pressing spleens through 70 um strainer and lysis of erythrocytes, the nucleated cells were resuspended in PBS buffer containing azide (0.05%) and stained with antibodies recognizing the indicated cell surface antigens for 30 min at 4° C. After washing, the splenocytes were subjected to FACS analysis. The antibodies against CD3, CD4, CD8α, CD11c, CD80, and CD86 were obtained from BD Bioscience-Pharmingen.
Next, we analyzed the expansion/activation of immune cells in WT mice 3 days after glycolipid stimulation. The numbers of total T cells, CD4^+ T and CD8^+ T cells were higher in mice treated by GSLs with αGal head than those treated by GSLs with αGlc (FIGS. 2C, 8E and 8F). This was in line with the observation that more cytokines/chemokines were induced by GSLs with αGal than GSLs with αGlc in mice (FIGS. 2A, 2B and 7). […] As compared to 7DW8-5-Glc, C1-Glc not only expanded ˜1.3 fold more splenocytes and DCs (FIGS. 8A and 8B) but also activated ˜3.5 fold more CD80^+ DCs as well as ˜3 fold more CD86^+ DCs (FIGS. 8C and 8D). The increased expansion/activation of DCs may contribute to the stronger immunogenicity triggered by C1-Glc and C34-Glc as compared to 7DW8-5-Glc in vivo.

## CCCCCCCCCCCCCC[C@@H](O)[C@@H](O)[C@H](CO[C@H]1O[C@H](CO)[C@H](O)[C@H](O)[C@H]1O)NC(=O)CCCCCCCCCCc1ccc(F)cc1 [Compound 7DW8-5, reference compound]
B6 wild type mice
  dose sufficient for immune stimulation: 0.1 μg/mouse

## CC[C@@H](O)[C@@H](O)[C@H](CO[C@H]1OC(CO)[C@@H](O)C(O)C1O)NC(=O)Cc1ccc(F)cc1 (some centres unmarked) [Compound 7DW8-5-Glc]
[1]
  expansion of human iNKT cells in vitro compared with 7DW8-5: significantly (p=0.0009) better

## CCCCCCCCCCCCCC[C@@H](O)[C@@H](O)[C@H](CO[C@H]1O[C@H](CO)[C@@H](O)[C@H](O)[C@@H]1O)NC(=O)CCCCCCCCCCc1ccc(F)cc1 [Compound 7DW8-5-Man]
[2]
  cytokine secretion (IL-2, IFN-γ, IL-4) from human iNKT cells: could not stimulate
[3]
  cytokine (IL-2) secretion from murine iNKT cells: could not stimulate
B6 WT mice splenocytes
  expansion of immune cells in WT mice: did not expand any types of immune cells
